Laboratory results reported in PMC10066322 (Scientific Reports, 2023).

Experiments:
PARN1-430 = biological target: T1, PARN1-430 (Homo sapiens, UniProt O95453); assay: Inhibition fluorescence assay (FAM-RNA / BHQ quencher deadenylase assay); format: biochemical
T1 construct: expression of the C-terminal truncated protein (1-430 aa of PARN) was soluble; His tag (from the pCold I vector); made in house; host or cells: E. coli Rosetta 2 DE
T1 sequence (O95453 1-430): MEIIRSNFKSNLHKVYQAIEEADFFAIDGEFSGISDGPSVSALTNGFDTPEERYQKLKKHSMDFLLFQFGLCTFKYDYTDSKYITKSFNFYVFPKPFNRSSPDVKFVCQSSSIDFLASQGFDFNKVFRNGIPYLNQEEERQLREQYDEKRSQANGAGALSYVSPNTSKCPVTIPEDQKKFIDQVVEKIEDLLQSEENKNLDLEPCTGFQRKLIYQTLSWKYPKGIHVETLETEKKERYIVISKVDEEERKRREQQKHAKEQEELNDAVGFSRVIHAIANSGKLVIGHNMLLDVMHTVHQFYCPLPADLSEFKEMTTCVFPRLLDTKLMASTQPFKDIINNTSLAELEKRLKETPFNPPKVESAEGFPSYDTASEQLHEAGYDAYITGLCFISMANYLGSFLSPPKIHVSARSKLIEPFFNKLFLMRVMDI
Procedure: To easily screen compounds for inhibition of PARN activity, we developed an assay in which fluorescence was used as the readout for monitoring PARN1-430’s activity (Fig. 3a). This assay was modeled on a similar assay developed for Caf1/CNOT7 deadenylase. In this assay, PARN1-430 was incubated with a 5′-fluorescently labeled oligoadenylated RNA. In the absence of deadenylation, this substrate RNA can effectively hybridize to a complementary DNA oligonucleotide with a quencher on its 3′ end leading to a loss of fluorescence (Fig. 3a). When the RNA substrate is deadenylated, the quenching oligonucleotide is no longer able to stably hybridize leading to an increase in fluorescence in the reaction.
Figure 3 Developing a fluorescence assay for PARN inhibition. (a) Cartoon depicting the inhibition fluorescence assay. Schematic diagram of the fluorescence-based deadenylase assay. The assay is based on a 5′ FAM-labelled RNA oligonucleotide substrate. After incubation of the substrate in the presence of PARN1-430, the reaction is stopped and a 3′ BHQ-labelled DNA oligonucleotide probe complementary to the RNA substrate is added. The fluorescence of intact substrate is quenched upon probe hybridization because of the proximity of the BHQ […]. In contrast, the BHQ-labelled probe cannot hybridize to the FAM-labelled reaction product allowing detection of FAM fluorescence. […] 2-way ANOVA, multiple comparisons test, average ± SD, n = 3 replicates. *P < 0.05, **P < 0.005, ***P < 0.001, ****P < 0.0001, n.s. was not indicated. […] Dotted-line represents RNA and RNA + Quencher data. One-way ANOVA, multiple comparisons test, average ± SD, n ≥ 3 replicates. *P < 0.05, **P < 0.005, ***P < 0.001, ****P < 0.0001, n.s. was not indicated. (d) PARN1-430 and PARNmut enzymatic activity measured at different time points. […] Dotted-line represents RNA and RNA + Quencher data. 2-way ANOVA, multiple comparisons test, average ± SD, n = 3 replicates. *P < 0.05, **P < 0.005, ***P < 0.001, ****P < 0.0001, n.s. was not indicated.
Quenched reaction was incubated at room temperature for 10–60 min and fluorescence was measured using Fluorescein wavelength measurement.

PARN level in Hela cells = assay: Western blot of PARN protein level in Hela cells; format: cell-based, human; settings: 50 μM, 2 days
Description: The blot was blotted against anti-PARN antibody. (b) Quantification of the changes in PARN levels of western blot using GAPDH as loading controls. siPARN and drug treatments were normalized to scramble siRNA and DMSO controls, respectively. siPARN and drug treatment data were compared to scr and DMSO data, respectively. One-way ANOVA, multiple comparisons test. Average ± SD, N = 3 biological replicates, n = 1. […] (d) Quantification of miR-21-5p levels normalized to U1 RNA. One-way ANOVA, multiple comparisons test, average ± SD, N = 3 biological replicates, n = 1. […] One-way ANOVA, multiple comparisons test, average ± SD, N = 3 biological replicates, n = 2. (f) Representative northern blot showing that miR-21-5p levels decreased in TH11, TH15, and TH16 treatments. […] (g) Quantification of miR-21-5p levels normalized to U1 RNA. […] For nothern blot and RT-qPCR quantifications, Scr and DMSO controls were independently set to 1 and used as control for siPARN and drug treatments, respectively. *P < 0.05, **P < 0.005, ***P < 0.001, ****P < 0.0001, n.s. was not indicated. […]
Cells was lysed with 2× lysis buffer (2.5% SDS, 4% BME, protease inhibitor) and was separated on a 4–12% Bis–Tris NuPage gel (ThermoFisher) and transferred to protran membrane (Amer- sham). […] Blot was quantified using ImageJ and normalized to GAPDH levels (GAPDH antibody (0411) HRP) (Santa Cruz Biotechnology, sc-47724 HRP).

Hela cells = assay: Cell death assay (cell counting, with or without doxorubicin); format: cell-based, human
Procedure: Previous work has shown that PARN inhibition leads to cell death in combination with DNA damaging agent, which has been interpreted to occur through the induction of p53[11].
Cell counting were done 2 days post-treatment. For doxorubicin (EMD Millipore, 504042) treatment, doxorubicin (1 μM) was added to cells. Cells were collected and counted at 0 h and 24 h after treatment.

[1] = biological target: ACK1 (activated CDC42 kinase 1); settings: cited from earlier work

For `Cc1ccc(Nc2ncc3c(n2)N(C)C(=O)N(c2cc(NC(=O)c4cccc(C(F)(F)F)c4)ccc2C)C3)cn1` [GNF-7], the IC50 (PARN1-430; GNF-7 on PARN1-430, 10 min pre-treatment, non-linear fit) was 35 ± 15 µM, the “inhibitory effect on PARN1-430, fluorescence assay” value (PARN1-430; among 15 docking compounds tested) was “strongest inhibitory effect” and the “PARN inhibitor in vitro” value (PARN1-430; computational docking compounds, fluorescence assay and gels, PARN1-430 pretreated with drug 10 min) was “Yes”. The “PARN level (western blot)” value (PARN level in Hela cells) was “do not affect PARN level”, the “sensitivity of cells to doxorubicin (cell death)” value (Hela cells; Hela cells treated 2 days, then doxorubicin 1 μM for 24 h) was “increase the sensitivity” and the “cell growth compared to DMSO treatment” value (Hela cells; Hela cells, 25 μM, 2 days) was “growth defects”. For the same compound, the IC50 [1] was 0.025 µM.
